Literature values in publication PMC9474474, “Determination of pharmacokinetics and tissue distribution of a novel lutetium-labeled PSMA-targeted ligand, ^177Lu-DOTA-PSMA-GUL, in rats by using LC–MS/MS” (Scientific Reports, 2022).

Parameters: method as in PMID 26985056
Conditions: cited from earlier work

Structure (SMILES): O=C([O-])CN1CCN(CC(=O)[O-])CCN(CC(=O)NCC2CCC(C(=O)N[C@@H](Cc3ccc4ccccc4c3)C(=O)NCCCC[C@H](NC(=O)N[C@@H](CCC(=O)O)C(=O)O)C(=O)O)CC2)CCN(CC(=O)[O-])CC1.[177Lu+3] (some centres unmarked) [^177Lu-PSMA-617]
- elimination half-life (humans, radioactivity study): 90 h
- eliminated by urine (patients with PSMA-positive tumor phenotype): approximately 50%
